Results from patent publication US20120207766A1, “INTRACELLULAR TOLL-LIKE RECEPTORS PATHWAYS AND AXONAL DEGENERATION” (priority 2009, published 2012).

Tests used:
[1] = tested on: MOG-myelitis; assay: MOG peptide myelitis, neurological deficit scoring after systemic mianserin; assay type: in vivo, mice; conditions: systemic administration; FIG. 12 panels B and C, n=8
Description: Induction of MOG peptide myelitis, and clinical evaluation. MOG peptide myelitis is elicited in 3 month old male mice by subcutaneous flank administration of 300 μg of rodent MOG peptide 35-55 emulsified in CFA. The mice receive 75 ng of pertussis toxin intraperitoneally on days 0 and 2, and are weighed and scored daily for neurological deficits by 2 blinded observers. Neurological scoring is on a 5 point scale: limp tail or waddling gait=1; limp tail and waddling gait=2; single limb paresis and ataxia 2.5; double limb paresis=3; single limb paralysis and paresis of a second limb=3.5; full paralysis of 2 limbs=4; and death (or sacrifice owing to inanition=5) (Bannerman et al, Brain 128:1877-1886 2005; Bannerman et al., Glia 55:57-64 2008; and Soulika et al, J Neurosci 29:14965-14979 2009).
Mianserin treatment. Mice are induced with MOG-myelitis as described. Groups of mice initially receive intraperitoneally 1-10 mg/kg/day. The start day can vary between days 5-12 (before disease onset) and 14-20 (after disease onset). Peripheral T cell responses and CNS infiltration are analyzed by flow cytometry. […] The mice are perfused with 4% paraformaldehyde and sections from lumbar spinal cord arestained with various antibodies and analyzed by confocal microscopy. […]

[2] = tested on: MOG-specific Th17 cell; assay: Peripheral T cell responses (Th17) by flow cytometry in MOG-myelitis mice; assay type: in vivo; conditions: systemic administration; FIG. 12 panel A, each bar a single mouse
Description: Mianserin treatment. Mice are induced with MOG-myelitis as described. Groups of mice initially receive intraperitoneally 1-10 mg/kg/day. The start day can vary between days 5-12 (before disease onset) and 14-20 (after disease onset). Peripheral T cell responses and CNS infiltration are analyzed by flow cytometry. Lumbar spinal cords are examined immunohistologically to characterize the degrees of axonal degeneration, secondary demyelination and CNS infiltration by peripheral immune cells during the various stages of MaG-myelitis. The mice are perfused with 4% paraformaldehyde and sections from lumbar spinal cord arestained with various antibodies and analyzed by confocal microscopy. In every step the degree of inflammation, axonal degeneration and demyelination is confirmed by using the following antibodies: CD11b (macrophages), CD3 (T cells), CD11c (dendritic cells), Glial fibrillary acidic protein (GFAP astroglia), Myelin Basic protein (MBP, for myelin), and SMI32 (hypophosphorylated NF—H, disrupted axons). To examine intracellular TLR and partner molecules antibodies against TLR3, 8 and 9, MyD88 and IRAK4, NALP1, ASC, active caspase-1, and IL-1 r3 are used.
Peripheral T cell responses. […]
Flow cytometry. […] Immunostained cells are analyzed using a Cyan FACS (Dako Cytomation).

Question: How did the “neurological symptoms associated with MOG-myelitis” value [1] turn out when `CN1CCN2c3ccccc3Cc3ccccc3C2C1` (centres unmarked) [mianserin] was run?
Answer: The value was “diminishes”.

Question: What about the “MOG-specific Th17 cell generation in the periphery” value [2] of the same compound?
Answer: Its value is “does not affect”.
